Data on 14 compounds can be found in US10273236B2, “Macrocyclic factor XIa inhibitors bearing heterocyclic groups” (Bristol-Myers Squibb Company, priority 2014, dated 2019).

Test [1] deals with T1, purified human Factor XIa (Homo sapiens, UniProt P03951).
T1 construct: purchased Haematologic Technologies
Description: Factor XIa inhibition assay, chromogenic substrate S-2366 (Ki). In kind it is biochemical. As for the experimental part:
(§1) The effectiveness of compounds of the present invention as inhibitors of the coagulation Factors XIa, VIIa, IXa, Xa, XIIa, plasma kallikrein or thrombin, can be determined using a relevant purified serine protease, respectively, and an appropriate synthetic substrate. The rate of hydrolysis of the chromogenic or fluorogenic substrate by the relevant serine protease was measured both in the absence and presence of compounds of the present invention. […] A decrease in the rate of absorbance or fluorescence change in the presence of inhibitor is indicative of enzyme inhibition. Such methods are known to one skilled in the art. The results of this assay are expressed as the inhibitory constant, Ki.
Factor XIa determinations were made in 50 mM HEPES buffer at pH 7.4 containing 145 mM NaCl, 5 mM KCl, and 0.1% PEG 8000 (polyethylene glycol; JT Baker or Fisher Scientific). Determinations were made using purified human Factor XIa at a final concentration of 25-200 pM (Haematologic Technologies) and the synthetic substrate S-2366 (pyroGlu-Pro-Arg-pNA; Chromogenix or AnaSpec) at a concentration of 0.0002-0.001 M.
(§2) Values of Ki were determined by allowing the protease to react with the substrate in the presence of the inhibitor.
(§3) Reactions were allowed to go for periods of 20-180 minutes (depending on the protease) and the velocities (rate of absorbance or fluorescence change versus time) were measured.
(§4) The following relationships were used to calculate Ki values: (Vmax*S)/(Km+S) (vo−vs)/vs=I/(Ki(1+S/Km)) for a competitive inhibitor with one binding site; or vs/vo=A+((B−A)/1+((IC50/(I)^n))); and Ki=IC50/(1+S/Km) for a competitive inhibitor where: […]

Test [2] concerns the target T2, purified human plasma kallikrein (Homo sapiens, UniProt P03952).
T2 construct: Plasma prekallikrein is a zymogen of a trypsin-like serine protease; purchased Enzyme Research Laboratories
Nature of the test: Plasma kallikrein inhibition assay, chromogenic substrate S-2302 (Ki). The class given is biochemical. As for the experimental part:
as §1
Plasma kallikrein determinations were made in 0.1 M sodium phosphate buffer at a pH of 7.5 containing 0.1-0.2 M sodium chloride and 0.5% PEG 8000. Determinations were made using purified human plasma kallikrein (Enzyme Research Laboratories) at a final assay concentration of 200 pM and the synthetic substrate S-2302 (H-(D)-Pro-Phe-Arg-pNA; Chromogenix) at a concentration of 0.00008-0.0004 M.
as §2, §3, §4

Counter-ions that a name gives are not always drawn.

T2 sequence (P03952 391-638 limits assumed): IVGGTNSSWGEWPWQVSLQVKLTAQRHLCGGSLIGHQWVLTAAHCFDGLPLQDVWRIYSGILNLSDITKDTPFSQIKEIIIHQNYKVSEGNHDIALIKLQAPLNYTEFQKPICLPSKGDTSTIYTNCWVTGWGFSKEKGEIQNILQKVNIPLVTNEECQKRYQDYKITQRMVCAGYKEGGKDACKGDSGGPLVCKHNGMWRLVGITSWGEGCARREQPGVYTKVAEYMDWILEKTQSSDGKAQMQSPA
T2 sequence (P03952 20-390 partner limits assumed): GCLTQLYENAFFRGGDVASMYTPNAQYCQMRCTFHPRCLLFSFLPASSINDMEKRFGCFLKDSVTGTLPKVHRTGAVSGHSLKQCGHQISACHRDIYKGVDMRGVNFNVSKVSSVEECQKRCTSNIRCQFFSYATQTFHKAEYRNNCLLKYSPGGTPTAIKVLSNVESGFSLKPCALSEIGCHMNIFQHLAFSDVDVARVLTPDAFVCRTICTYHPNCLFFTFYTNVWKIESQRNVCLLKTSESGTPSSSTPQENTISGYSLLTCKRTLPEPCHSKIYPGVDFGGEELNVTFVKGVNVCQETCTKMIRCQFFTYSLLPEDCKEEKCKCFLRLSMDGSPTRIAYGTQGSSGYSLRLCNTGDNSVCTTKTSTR
T1 sequence (P03951 388-625 limits assumed): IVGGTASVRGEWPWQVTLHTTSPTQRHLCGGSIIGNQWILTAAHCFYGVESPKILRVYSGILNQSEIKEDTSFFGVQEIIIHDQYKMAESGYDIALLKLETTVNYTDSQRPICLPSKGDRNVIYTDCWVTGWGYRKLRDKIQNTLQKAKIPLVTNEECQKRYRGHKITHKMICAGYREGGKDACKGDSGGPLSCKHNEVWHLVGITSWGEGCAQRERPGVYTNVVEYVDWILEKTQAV
T1 sequence (P03951 19-387 partner limits assumed): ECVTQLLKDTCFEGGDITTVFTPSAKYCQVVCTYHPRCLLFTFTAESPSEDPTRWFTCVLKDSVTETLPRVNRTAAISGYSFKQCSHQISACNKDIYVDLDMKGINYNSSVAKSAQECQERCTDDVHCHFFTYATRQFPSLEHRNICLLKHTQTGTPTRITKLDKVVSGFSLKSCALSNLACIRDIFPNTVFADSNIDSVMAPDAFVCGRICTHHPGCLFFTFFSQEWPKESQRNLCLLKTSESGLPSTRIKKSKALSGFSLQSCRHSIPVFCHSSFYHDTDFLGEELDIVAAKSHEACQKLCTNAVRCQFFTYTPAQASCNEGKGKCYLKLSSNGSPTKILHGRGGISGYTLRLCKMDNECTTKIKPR

As for `C[C@@H]1CCC[C@H](N2CCC(c3cc(Cl)ccc3C#N)=CC2=O)c2cc(ccn2)-c2c(cnn2C(F)F)NC1=O` [Example 19, 4-chloro-2-{1-[(9R,13S)-3-(difluoromethyl)-9-methyl-8-oxo-3,4,7,15-tetraazatricyclo[12.3.1.0^2,6]octadeca-1(18),2(6),4,14,16-pentaen-13-yl]-6-oxo-1,2,3,6-tetrahydropyridin-4-yl}benzonitrile], the Ki – broadly, a measure of affinity in units of concentration, obtained from inhibition or displacement – in test [1] came to 1.4 nM; in test [2], 10 nM.

Regarding `C[C@H]1C(=O)Nc2cnn(C)c2-c2ccnc(c2)[C@@H](N2CCC(c3c(C(F)(F)F)ccc(Cl)c3F)=CC2=O)CCC1F` (stereo partly drawn) [Example 20, (9S,13S)-13-{4-[3-chloro-2-fluoro-6-(trifluoromethyl)phenyl]-6-oxo-1,2,3,6-tetrahydropyridin-1-yl}-10-fluoro-3,9-dimethyl-3,4,7,15-tetraazatricyclo[12.3.1.0^2,6]octadeca-1(18),2(6),4,14,16-pentaen-8-one], the figures for the Ki in test [1] and in test [2] were 1.4 nM and 40 nM, respectively.

`C[C@@H]1CCC[C@H](N2CCC(c3c(OC(F)F)ccc(Cl)c3F)=CC2=O)c2cc(ccn2)-c2c(cnn2C(F)F)NC1=O` [Example 21, (9R,13S)-13-{4-[3-chloro-6-(difluoromethoxy)-2-fluorophenyl]-6-oxo-1,2,3,6-tetrahydropyridin-1-yl}-3-(difluoromethyl)-9-methyl-3,4,7,15-tetraazatricyclo[12.3.1.0^2,6]octadeca-1(18),2(6),4,14,16-pentaen-8-one]: the results for the Ki in test [1] and in test [2] were 0.69 nM and 40 nM, respectively.

For the compound `C[C@@H]1CCC[C@H](N2CCC(c3c(F)ccc(Cl)c3F)=CC2=O)c2cc(ccn2)-c2c(cnn2C(F)F)NC1=O` [Example 22, (9R,13S)-13-[4-(3-chloro-2,6-difluorophenyl)-6-oxo-1,2,3,6-tetrahydropyridin-1-yl]-3-(difluoromethyl)-9-methyl-3,4,7,15-tetraazatricyclo [12.3.1.0^2,6]octadeca-1(18),2(6),4,14,16-pentaen-8-one], the results for the inhibitory constant (Ki) in test [1] and in test [2] were 8 nM and 50 nM, respectively.

Take `C[C@@H]1CCC[C@H](N2CCC(c3c(OC(F)F)ccc(Cl)c3F)=CC2=O)c2cc(ccn2)-c2c(cnn2C)NC1=O` [Example 23, (9R,13S)-13-{4-[3-chloro-6-(difluoromethoxy)-2-fluorophenyl]-6-oxo-1,2,3,6-tetrahydropyridin-1-yl}-3,9-dimethyl-3,4,7,15-tetraazatricyclo[12.3.1.0^2,6]octadeca-1(18),2(6),4,14,16-pentaen-8-one]: the Ki came out at 0.92 nM in test [1] and 7 nM in test [2].

For `C[C@@H]1CCC[C@H](N2CCC(c3c(Cl)ccc(Cl)c3F)=CC2=O)c2cc(ccn2)-c2c(cnn2C)NC1=O` [Example 24, (9R,13S)-13-[4-(3,6-dichloro-2-fluorophenyl)-6-oxo-1,2,3,6-tetrahydropyridin-1-yl]-3,9-dimethyl-3,4,7,15-tetraazatricyclo[12.3.1.0^2,6]octadeca-1(18),2(6),4,14,16-pentaen-8-one], the Ki in test [1] amounted to 2.7 nM; in test [2] it was 6 nM.

In the case of `CC(C)[C@@H]1CCC[C@H](N2CCC(c3cc(Cl)ccc3-n3cc(Cl)nn3)=CC2=O)c2cc(ccn2)-c2c(cnn2C)NC1=O` [Example 25, (9S,13S)-13-{4-[5-chloro-2-(4-chloro-1H-1,2,3-triazol-1-yl)phenyl]-6-oxo-1,2,3,6-tetrahydropyridin-1-yl}-3-methyl-9-(propan-2-yl)-3,4,7,15-tetraazatricyclo[12.3.1.0^2,6]octadeca-1(18),2(6),4,14,16-pentaen-8-one], the Ki in test [1] came to 0.47 nM; in test [2] it was 16 nM.

For the compound `C[C@@H]1CCC[C@H](N2CCC(c3c(C(F)F)ccc(Cl)c3F)=CC2=O)c2cc(ccn2)-c2c(cnn2C)NC1=O` [Example 26, (9R,13S)-13-{4-[3-chloro-6-(difluoromethyl)-2-fluorophenyl]-6-oxo-1,2,3,6-tetrahydropyridin-1-yl}-3,9-dimethyl-3,4,7,15-tetraazatricyclo [12.3.1.0^2,6]octadeca-1(18),2(6),4,14,16-pentaen-8-one], the Ki was determined as 0.48 nM in test [1] and 5 nM in test [2].

With `C[C@@H]1CCC[C@H](n2ccc(-c3c(OC(F)F)ccc(Cl)c3F)cc2=O)c2cc(ccn2)-c2c(cnn2C)NC1=O` [Example 27, (9R,13S)-13-{4-[3-chloro-6-(difluoromethoxy)-2-fluorophenyl]-2-oxo-1,2-dihydropyridin-1-yl}-3,9-dimethyl-3,4,7,15-tetraazatricyclo[12.3.1.0^2,6]octadeca-1(18),2(6),4,14,16-pentaen-8-one trifluoroacetate], the Ki in test [1] was 4.9 nM; in test [2] it was 40 nM.

As to `C[C@H]1C(=O)Nc2cnn(C)c2-c2ccnc(c2)[C@@H](n2ccc(-c3c(C(F)(F)F)ccc(Cl)c3F)cc2=O)CCC1F` (stereo partly drawn) [Example 28, (9S,13S)-13-{4-[3-chloro-2-fluoro-6-(trifluoromethyl)phenyl]-2-oxo-1,2-dihydropyridin-1-yl}-10-fluoro-3,9-dimethyl-3,4,7,15-tetraazatricyclo[12.3.1.0^2,6]octadeca-1(18),2(6),4,14,16-pentaen-8-one trifluoroacetate], the Ki in test [1] came out at 3 nM; in test [2] it was 25 nM.

On to `[2H]C([2H])([2H])n1ncc2c1-c1ccnc(c1)[C@@H](N1CCC(c3c(C(F)F)ccc(Cl)c3F)=CC1=O)CCC[C@@H](C)C(=O)N2` [Example 29, (9R,13S)-13-{4-[3-chloro-6-(difluoromethyl)-2-fluorophenyl]-6-oxo-1,2,3,6-tetrahydropyridin-1-yl}-3-(^2H3)methyl-9-methyl-3,4,7,15-tetraazatricyclo[12.3.1.0^2,6]octadeca-1(18),2(6),4,14,16-pentaen-8-one], for which the Ki in test [1] was 0.6 nM; in test [2] it was 6 nM.

Turning to `[2H]C([2H])([2H])n1ncc2c1-c1ccnc(c1)[C@@H](N1CCC(c3c(OC(F)F)ccc(Cl)c3F)=CC1=O)CCC[C@@H](C)C(=O)N2` [Example 30, (9R,13S)-13-{4-[3-chloro-6-(difluoromethoxy)-2-fluorophenyl]-6-oxo-1,2,3,6-tetrahydropyridin-1-yl}-3-(^2H3)methyl-9-methyl-3,4,7,15-tetraazatricyclo[12.3.1.0^2,6]octadeca-1(18),2(6),4,14,16-pentaen-8-one], the Ki in test [1] came out at 1 nM; in test [2] it was 7 nM.

Consider `C[C@@H]1CCC[C@H](N2CCC(c3c(Cl)ccc(Cl)c3F)=CC2=O)c2cc(ccn2)-c2c(cnn2C(F)F)NC1=O` [Example 31, (9R,13S)-13-[4-(3,6-dichloro-2-fluorophenyl)-6-oxo-1,2,3,6-tetrahydropyridin-1-yl]-3-(difluoromethyl)-9-methyl-3,4,7,15-tetraazatricyclo [12.3.1.0^2,6]octadeca-1(18),2(6),4,14,16-pentaen-8-one], for which the inhibition constant (Ki) in test [1] is 1.9 nM; in test [2] it was 11 nM.

In the case of `[2H]C([2H])([2H])n1ncc2c1-c1ccnc(c1)[C@@H](N1CCC(c3cc(Cl)ccc3C#N)=CC1=O)CCC[C@@H](C)C(=O)N2` [Example 32, 4-chloro-2-{1-[(9R,13S)-3-(^2H3)methyl-9-methyl-8-oxo-3,4,7,15-tetraazatricyclo[12.3.1.0^2,6]octadeca-1(18),2(6),4,14,16-pentaen-13-yl]-6-oxo-1,2,3,6-tetrahydropyridin-4-yl}benzonitrile], the Ki in test [1] is 2.4 nM; in test [2], 4 nM.
